From patent publication US4987151A, “Triterpene derivatives cholesterol acyltransferase inhibitors and methods of using same” (The Trustees of Columbia University in the City of New York, priority 1989, dated 1991)
Values belong to the compound of their own block, whether it stands above or below them.

Key:
rats = details: cited from earlier work
J774 Macrophages = details: tissue culture macrophages (J774); cited from earlier work
ACAT enzyme = experiment: ACAT inhibitory activity, free hydroxyl compound versus ester admixture; format: biochemical
Procedure: The term "effective amount" as used herein is an amount sufficient to inhibit the ACAT enzyme from esterifying cholesterol and fatty acids to cholesteryl esters. The actual amount used varies depending on which compound or composition or admixture is used. For example, the free hydroxyl compound seems to have less activity than an admixture of the stearate and palmitate esters. The actual dosages may vary from about 0.1 mg/kg/day to about 50 mg/kg/day, and may be adjusted by a person of ordinary skill in the art to maximize effectiveness while avoiding side effects and toxicities.

SMILES: CCCCCCCN(Cc1ccc(CC(C)(C)C)cc1)C(=O)Nc1ccc(F)cc1F [CL 277,082]
effect on cholesterol concentrations in plasma, liver, and aorta (rats): decreasing cholesterol concentrations in plasma, liver, and aorta

SMILES: CCCCCCCCCC[Si](C)(C)CCC(=O)NC(Cc1ccc(C)cc1)c1ccccc1 (stereo not drawn) [Sandoz Compound 58-035]
effect on foam cell formation (J774 Macrophages): help prevent foam cell formation

activity relative to admixture of the stearate and palmitate esters (ACAT enzyme): less activity
SMILES: C[C@@H]1[C@H](O)CC[C@]2(C)[C@H]3CC=C4[C@@H]5C[C@](C)(C(=O)O)C[C@H](O)[C@]5(C)CC[C@@]4(C)[C@]3(C)CC[C@@H]12 [free hydroxyl compound]
